Experimental findings from US20090029855A1, “Quinoline Derivatives and Their Use as Pesticides” (priority 2006, published 2009) are described below.

In this data set the test system is Rice Green Leaf Hoppers (Nephoteftix Virescens). Briefly: Activity against rice green leaf hoppers, foliar spray on rice plants. Type of data set: in vivo. To be noted: 300 ppm; after 72 hours. The method, then: Leaf hopper and plant hoppers adults used for bioassay were obtained from a colony maintained continuously under laboratory conditions. For testing purposes, the test compound was diluted in 300 ppm (wt compound:vol diluent) in a 1:1 mixture of acetone:water, plus 0.1% EL 620 surfactant.
Hopper activity was evaluated using the foliar spray technique. Pofted rice plants (2-3 week old, Variety TN-1) were cleaned and dried prior to application. All plants were treated inside the fume hood using DeVilbiss atomizer at 25 psi with a spray volume of 5 ml/plant. To ensure uniform spray distribution, plants were placed in a rotating flat form inside the fume hood. Treated plants were then placed inside the holding room and allowed to dry for 2 hours. Each plant was caged using Mylar cages (4 inches diameter×19 inches in height) and inoculated with 10 adults hoppers. All test plants were held under continuous light and a temperature of about 28° C. for duration of the assay. Percent mortality was observed after 72 hours.

The mortality is the percentage killed. Higher therefore signals fewer survivors. In turn, `Cc1ccc(-c2ccc(S(=O)(=O)NCc3ccnc4ccccc34)cc2)c(Cl)c1` [I-32] gave a mortality of no less than 75%.
